For one series, the system named is P388 murine leukaemia. Briefly: Antitumoral activity in vivo, survival of P388 murine leukemia carrier mice. On the set-up: species or system B6D2F1 female mice. The procedure: (§1) The antitumoral activity of compounds having the formula trans-[PtCl2(NH3){Z-HN═C(OMe)Me}] (1) and trans-[PtCl2(NH3){E-HN═C(OMe)Me}] (2) was tested. Specifically, the antitumoral activity of compounds (1) and (2) was analyzed in experimental systems in vitro, testing for inhibition of the proliferation of human tumor cells in culture and in vivo by testing the increment in survival of mice carriers of P388 murine leukemia.
The antiumoral activity in vivo of compounds 1 and 2, expressed as an increment in the survival of P388 murine leukemia carrier mice, was also tested.
(§2) ^a P388 leukemic cells (10^6/animal) were inoculated in the peritoneum in B6D2F1 female mice (body weight=18 g) on day 0; treatment with the platinum compounds, dissolved at the time of use in a physiological solution, was performed on days 1-7, administering IP the doses indicated in the table in a volume equal to 0.1 ml/10 g body weight.
^c ILS=(average of the days of survival of treated mice/average of days of survival of untreated mice) X 100.

For series [1], the system named is ovarian carcinoma line (A2780/cp8) with resistance to cisplatinum. Briefly: Inhibition of in vitro proliferation of human tumor cells, A2780/cp8. The series is classed as cell-based. The settings on record: 72 hours treatment, cisplatinum-resistant line; read-out: Inhibitory concentrations (IC50) A2780/cp8. The procedure: as §1
(§3) The inhibitory effect of compounds (1) and (2) on the in vitro proliferation of human tumor cells of ovarian carcinoma (A2780), pulmonary carcinoma (Calu), colon carcinoma (LoVo) and on an ovarian carcinoma line (A2780/cp8) with resistance to cisplatinum is presented in the following Table I.
(§4) Proliferation inhibition is expressed by means of IC50 values, which indicate the concentration of compound (μM) in the culture medium that determines a 50% reduction in the proliferation of the treated cells with respect to untreated cells.
(§5) The IC50 values were extrapolated from dose-response curves obtained by treating for 72 hours the tumor cells with various concentrations of the tested compounds dissolved in the culture medium and checking, at the end of the incubation period, the number of cells present in the treated samples with respect to the number of cells in the untreated samples (control).

The test system of series [2] is ovarian carcinoma (A2780). Briefly: Inhibition of in vitro proliferation of human tumor cells, A2780. The series is classed as cell-based. Conditions: 72 hours treatment, cell number vs untreated control; read-out: Inhibitory concentrations (IC50) A2780. The procedure:
as §1, §3, §4, §5

Series [3] has as its system pulmonary carcinoma (Calu). The series is described as follows: Inhibition of in vitro proliferation of human tumor cells, Calu. The series is classed as cell-based. Conditions: 72 hours treatment, cell number vs untreated control; read-out: Inhibitory concentrations (IC50) Calu. The procedure: as §1, §3, §4, §5
The next series relates to colon carcinoma (LoVo). Briefly: Inhibition of in vitro proliferation of human tumor cells, LoVo. Conditions: 72 hours treatment, cell number vs untreated control; read-out: Inhibitory concentrations (IC50) Lo Vo. The series is classed as cell-based. As for the experimental part: as §1, §3, §4, §5
Series [4] is described as follows: Body weight variation and toxicity in treated P388 carrier mice. The series is classed as in vivo. The settings on record: at the end of the treatment. The procedure:
as §2
^b Percentage variation of body weight of the animals at the end of the treatment.

For series [5] the following is noted: background statement; cited from earlier work.
The subject of the next series is tumor cells. Conditions: cited from earlier work.
In series [6] the test system is solid and lymphoproliferative murine tumors. Conditions: background statement; cited from earlier work.
The mark [7] stands for this setting: 10 mg/kg IP daily, ILS = (average survival days treated/untreated) × 100.
Where [8] appears, read: 15 mg/kg IP daily, ILS = (average survival days treated/untreated) × 100.
Where [9] appears, read: 20 mg/kg IP daily, ILS calculated on 4 animals.

Structures are written as SMILES. Marks after values point to notes of the source that are not given here.

Consider `COC(C)=N.N.[Cl][Pt][Cl]` [Compound 1, trans-[PtCl2(NH3){Z-HN═C(OMe)Me}]], for which the results for the ILS in the series with P388 murine leukaemia (setting [7]), in the series on P388 murine leukaemia (setting [8]) and with P388 murine leukaemia (setting [9]) were 165, 173 and 190^d, respectively. Besides, the IC50 in [1] turned out to be 35 µM; in series [2], 37 µM; in series [3], 90 µM; with colon carcinoma (LoVo), 21 µM. Further, the entries for the “Percentage variation of body weight” value in series [4] (10 mg/kg IP daily), in series [4] (15 mg/kg IP daily) and in [4] (20 mg/kg IP daily) were −1.5%, −4.4% and −11.5%, respectively.

With `COC(C)=N.N.[Cl][Pt][Cl]` [Compound 2, trans-[PtCl2(NH3){E-HN═C(OMe)Me}]], the ILS in the series on P388 murine leukaemia (setting [7]) is on record as 128; with P388 murine leukaemia (setting [8]) it was 152; in the series with P388 murine leukaemia (setting [9]), 132^e. In addition, the IC50 in series [1] was 8.6 µM; in [2] it was 8.5 µM; in series [3], 55 µM; in the series with colon carcinoma (LoVo), 7 µM. Further, the “Percentage variation of body weight” value in series [4] (10 mg/kg IP daily) is recorded as −1.8%; in series [4] (15 mg/kg IP daily), −3.1%; in series [4] (20 mg/kg IP daily), −10%.

`N.N.[Cl][Pt+2][Cl]` [trans-DDP, trans-[PtCl2(NH3)2]]: in series [5], the antitumoral activity result was “no antitumoral activity”.

`N.NC1CCCCC1.[OH][Pt]([OH])([Cl])[Cl]` [trans-[PtCl2(OH)2(NH3){NH2(C6H11)}]]: the antitumoral activity result in series [5] is “antitumoral activity in vitro and in vivo”.

On to `[Cl][Pt][Cl].c1ccncc1.c1ccncc1` [trans-[PtCl2(pyridine)2]], for which the “cytotoxic effect in vitro against tumor cells” value with tumor cells is on record as “higher cytotoxic effect in vitro against tumor cells than trans-DDP”.

`COC(C)=N.COC(C)=N.[Cl][Pt][Cl]` [trans-[PtCl2{E-HN═C(OMe)Me}2]]: the “antitumoral activity in vivo” value in [6] is recorded as “antitumoral activity in vivo”.

The values are drawn from patent publication US6458983B1, “Method for synthesizing complexes of platinum with iminoethers and their use as antitumoral drugs and nucleotide-base modifiers” (priority 1998, dated 2002).
